Data published in ChEMBL document CHEMBL3751688, “Synthesis, in vitro antimycobacterial evaluation and docking studies of some new 5,6,7,8-tetrahydropyrido[4',3':4,5]thieno[2,3-d]pyrimidin-4(3H)-one schiff bases” (Bioorg Med Chem Lett, 2016).
≈ marks a conversion by molar mass, not a printed value.

Key:
[1] = test system: Staphylococcus aureus; test: Antibacterial activity against Staphylococcus aureus MTCC 96 after 24 hrs by broth microdilution technique; format: functional; details: MTCC 96, 24 h
[2] = test system: Bacillus subtilis; test: Antibacterial activity against Bacillus subtilis MTCC 441 after 24 hrs by broth microdilution technique; format: functional; details: MTCC 441, 24 h
[3] = test system: Escherichia coli; test: Antibacterial activity against Escherichia coli MTCC 443 after 24 hrs by broth microdilution technique; format: functional; details: MTCC 443, 24 h
[4] = test system: Klebsiella pneumoniae; test: Antibacterial activity against Klebsiella pneumoniae MTCC 109 after 24 hrs by broth microdilution technique; format: functional; details: MTCC 109, 24 h
[5] = test system: Mycobacterium tuberculosis; test: Antimycobacterial activity against Mycobacterium tuberculosis H37Rv after 14 days by broth microdilution method; format: functional; details: 336 h
[6] = test system: Mycobacterium tuberculosis; test: Antimycobacterial activity against Mycobacterium tuberculosis H37Rv after 21 days by broth microdilution method; format: functional; details: 504 h
[7] = test system: Mycobacterium tuberculosis; test: Antimycobacterial activity against Mycobacterium tuberculosis H37Rv at 123 uM after 3 days by luciferase reporter phage assay; format: functional; details: 72 h
[8] = test system: Mycobacterium tuberculosis; test: Antimycobacterial activity against Mycobacterium tuberculosis H37Rv at 246 uM after 3 days by luciferase reporter phage assay; format: functional; details: 72 h
[9] = test system: Mycobacterium tuberculosis; test: Antimycobacterial activity against Mycobacterium tuberculosis H37Rv at 492 uM after 3 days by luciferase reporter phage assay; format: functional; details: 72 h
[10] = target: T1, Pantothenate synthetase (Mycobacterium tuberculosis, UniProt P9WIL5); test: Inhibition of Mycobacterium tuberculosis pantothenate synthetase
T1 sequence (P9WIL5 whole entry): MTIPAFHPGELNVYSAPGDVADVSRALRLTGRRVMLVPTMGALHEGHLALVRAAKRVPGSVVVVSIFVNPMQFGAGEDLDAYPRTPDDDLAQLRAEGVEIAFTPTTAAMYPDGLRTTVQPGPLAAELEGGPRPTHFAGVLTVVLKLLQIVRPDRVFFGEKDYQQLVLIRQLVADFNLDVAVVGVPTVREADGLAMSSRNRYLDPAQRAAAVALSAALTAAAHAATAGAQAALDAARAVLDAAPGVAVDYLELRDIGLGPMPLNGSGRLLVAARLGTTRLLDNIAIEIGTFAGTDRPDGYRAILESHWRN

[11] = test system: Mycobacterium tuberculosis; test: Antimycobacterial activity against Mycobacterium tuberculosis H37Rv at 116 uM after 3 days by luciferase reporter phage assay; format: functional; details: 72 h
[12] = test system: Mycobacterium tuberculosis; test: Antimycobacterial activity against Mycobacterium tuberculosis H37Rv at 232 uM after 3 days by luciferase reporter phage assay; format: functional; details: 72 h
[13] = test system: Mycobacterium tuberculosis; test: Antimycobacterial activity against Mycobacterium tuberculosis H37Rv at 465 uM after 3 days by luciferase reporter phage assay; format: functional; details: 72 h
[14] = test system: Mycobacterium tuberculosis; test: Antimycobacterial activity against Mycobacterium tuberculosis H37Rv at 113 uM after 3 days by luciferase reporter phage assay; format: functional; details: 72 h
[15] = test system: Mycobacterium tuberculosis; test: Antimycobacterial activity against Mycobacterium tuberculosis H37Rv at 224 uM after 3 days by luciferase reporter phage assay; format: functional; details: 72 h
[16] = test system: Mycobacterium tuberculosis; test: Antimycobacterial activity against Mycobacterium tuberculosis H37Rv at 455 uM after 3 days by luciferase reporter phage assay; format: functional; details: 72 h

Row | Structure (SMILES) | MIC [1] | MIC [2] | MIC [3] | MIC [4] | MIC [5] | MIC [6] | further results
1 | CN[C@@H]1[C@H](O[C@H]2[C@H](O[C@H]3[C@H](O)[C@@H](O)[C@H](N=C(N)N)[C@@H](O)[C@@H]3N=C(N)N)O[C@@H](C)[C@]2(O)C=O)O[C@@H](CO)[C@H](O)[C@H]1O [STREPTOMYCIN] | < 1 µM | < 1 µM | < 1 µM | < 1 µM | 2 µM (≈ 1.16 µg/mL) | 2 µM (≈ 1.16 µg/mL) | –
2 | NNC(=O)c1ccncc1 [ISONIAZID] | – | – | – | – | 0.28 µM (≈ 0.0384 µg/mL) | 0.28 µM (≈ 0.0384 µg/mL) | –
3 | O=c1c2c3c(sc2ncn1/N=C/c1ccc(Cl)cc1Cl)CN(Cc1ccccc1)CC3 | 66 µM (≈ 31 µg/mL) | 32 µM (≈ 15 µg/mL) | 66 µM (≈ 31 µg/mL) | 66 µM (≈ 31 µg/mL) | – | – | –
4 | Cc1nc2sc3c(c2c(=O)n1/N=C/c1ccc(Cl)cc1Cl)CCN(Cc1ccccc1)C3 | 64 µM (≈ 30.9 µg/mL) | 15 µM (≈ 7.25 µg/mL) | 64 µM (≈ 30.9 µg/mL) | 64 µM (≈ 30.9 µg/mL) | – | – | –
5 | Cc1nc2sc3c(c2c(=O)n1/N=C/c1ccc(O)cc1)CCN(Cc1ccccc1)C3 | 144 µM (≈ 62 µg/mL) | 144 µM (≈ 62 µg/mL) | 144 µM (≈ 62 µg/mL) | 144 µM (≈ 62 µg/mL) | – | – | –
6 | O=c1c2c3c(sc2ncn1/N=C/c1cccs1)CN(Cc1ccccc1)CC3 | 36 µM (≈ 14.6 µg/mL) | 150 µM (≈ 61 µg/mL) | 150 µM (≈ 61 µg/mL) | 150 µM (≈ 61 µg/mL) | 22 µM (≈ 8.94 µg/mL) | 22 µM (≈ 8.94 µg/mL) | inhibition at 123 µM [7]: 0%; inhibition at 246 µM [8]: 0%; inhibition at 492 µM [9]: 0%
7 | Cc1nc2sc3c(c2c(=O)n1/N=C/c1ccccc1)CCN(Cc1ccccc1)C3 | 74 µM (≈ 30.7 µg/mL) | 74 µM (≈ 30.7 µg/mL) | 74 µM (≈ 30.7 µg/mL) | 149 µM (≈ 61.8 µg/mL) | – | – | –
8 | NC(=O)c1c(NC(=O)c2ccc([N+](=O)[O-])s2)sc2c1CCN(Cc1ccccc1)C2 | – | – | – | – | – | – | IC50 [10]: 1130 nM
9 | Cc1nc2sc3c(c2c(=O)n1/N=C/c1ccc(F)cc1)CCN(Cc1ccccc1)C3 | 71 µM (≈ 30.7 µg/mL) | 71 µM (≈ 30.7 µg/mL) | 71 µM (≈ 30.7 µg/mL) | 71 µM (≈ 30.7 µg/mL) | – | – | –
10 | COc1cc(/C=N/n2cnc3sc4c(c3c2=O)CCN(Cc2ccccc2)C4)cc(OC)c1OC | 255 µM (≈ 125 µg/mL) | 255 µM (≈ 125 µg/mL) | 255 µM (≈ 125 µg/mL) | 255 µM (≈ 125 µg/mL) | – | – | –
11 | COc1ccc(/C=N/n2cnc3sc4c(c3c2=O)CCN(Cc2ccccc2)C4)cc1 | 34 µM (≈ 14.6 µg/mL) | 34 µM (≈ 14.6 µg/mL) | 16 µM (≈ 6.89 µg/mL) | 72 µM (≈ 31 µg/mL) | 20 µM (≈ 8.61 µg/mL) | 20 µM (≈ 8.61 µg/mL) | inhibition at 116 µM [11]: 0%; inhibition at 232 µM [12]: 15%; inhibition at 465 µM [13]: 16.9%
12 | CO[C@H]1/C=C/O[C@@]2(C)Oc3c(C)c(O)c4c(O)c(c(/C=N/N5CCN(C)CC5)c(O)c4c3C2=O)NC(=O)/C(C)=C\C=C\[C@H](C)[C@H](O)[C@@H](C)[C@@H](O)[C@@H](C)[C@H](OC(C)=O)[C@@H]1C [RIFAMPIN] | – | – | – | – | 0.09 µM (≈ 0.0741 µg/mL) | 0.09 µM (≈ 0.0741 µg/mL) | –
13 | Cc1nc2sc3c(c2c(=O)n1/N=C/c1ccc(C#N)cc1)CCN(Cc1ccccc1)C3 | 34 µM (≈ 14.9 µg/mL) | 34 µM (≈ 14.9 µg/mL) | 15 µM (≈ 6.59 µg/mL) | 70 µM (≈ 30.8 µg/mL) | 20 µM (≈ 8.79 µg/mL) | 20 µM (≈ 8.79 µg/mL) | inhibition at 113 µM [14]: 0%; inhibition at 224 µM [15]: 6.5%; inhibition at 455 µM [16]: 9.8%
14 | O=c1c2c3c(sc2ncn1/N=C/c1ccco1)CN(Cc1ccccc1)CC3 | 158 µM (≈ 61.7 µg/mL) | 158 µM (≈ 61.7 µg/mL) | 158 µM (≈ 61.7 µg/mL) | 158 µM (≈ 61.7 µg/mL) | – | – | –
